Assay [1] deals with T1, membrane-bound aminopeptidase activity in the CA1 (Rattus norvegicus, UniProt P15684).
T1 sequence (P15684 2-965): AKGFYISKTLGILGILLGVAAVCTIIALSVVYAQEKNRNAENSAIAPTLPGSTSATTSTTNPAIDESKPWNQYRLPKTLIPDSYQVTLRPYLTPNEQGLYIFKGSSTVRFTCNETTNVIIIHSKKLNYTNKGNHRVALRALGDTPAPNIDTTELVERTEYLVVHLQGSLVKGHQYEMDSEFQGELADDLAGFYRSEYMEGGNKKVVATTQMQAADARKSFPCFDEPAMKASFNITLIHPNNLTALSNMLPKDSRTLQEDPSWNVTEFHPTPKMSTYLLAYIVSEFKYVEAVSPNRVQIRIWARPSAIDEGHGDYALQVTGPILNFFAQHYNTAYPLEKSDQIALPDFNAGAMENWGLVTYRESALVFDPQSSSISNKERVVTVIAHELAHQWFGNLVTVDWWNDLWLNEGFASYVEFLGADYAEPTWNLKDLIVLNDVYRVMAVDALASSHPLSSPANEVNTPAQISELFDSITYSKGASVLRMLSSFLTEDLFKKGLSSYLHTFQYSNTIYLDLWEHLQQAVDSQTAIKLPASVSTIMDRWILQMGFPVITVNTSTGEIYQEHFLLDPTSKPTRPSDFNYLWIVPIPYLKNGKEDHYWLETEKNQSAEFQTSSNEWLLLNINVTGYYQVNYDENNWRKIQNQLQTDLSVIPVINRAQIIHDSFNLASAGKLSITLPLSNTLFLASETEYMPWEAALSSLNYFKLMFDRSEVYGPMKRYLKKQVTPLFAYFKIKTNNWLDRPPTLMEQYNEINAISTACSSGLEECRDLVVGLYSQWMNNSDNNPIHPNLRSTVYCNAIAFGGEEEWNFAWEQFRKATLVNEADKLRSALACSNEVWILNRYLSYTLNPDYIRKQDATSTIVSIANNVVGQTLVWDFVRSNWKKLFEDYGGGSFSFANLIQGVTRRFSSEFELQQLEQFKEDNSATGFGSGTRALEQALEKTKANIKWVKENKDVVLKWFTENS
In kind it is biochemical.

Assay [2] deals with T2, membrane-bound aminopeptidase activity in the CA3 (Rattus norvegicus, UniProt P15684).
T2 sequence (P15684 2-965): T1 sequence (P15684 2-965)
In kind it is biochemical.

The target of assay [3] is puromycin-sensitive aminopeptidase (PSA, EC 3.4.11.14). The conditions noted are these: cited from earlier work.
For assay [4], the target named is aminopeptidase N (APN, EC 3.4.11.2). The conditions noted are these: cited from earlier work.
Assay [5] has as its system ectopeptidases in whole OHSCs. The note with it: EO sampling; cited from earlier work.

By Ki is commonly meant a measure of affinity in units of concentration, obtained from inhibition or displacement. `CC(C)C[C@H](NC(=O)[C@@H](O)[C@H](N)Cc1ccccc1)C(=O)O` [bestatin]: the inhibitory constant (Ki) in assay [1] is 12 ± 9 µM; in assay [2] it was 11 ± 7 µM; in assay [3], 0.5 µM.
For `COc1ccc(C[C@H](N)C(=O)N[C@H]2[C@@H](O)[C@H](n3cnc4c(N(C)C)ncnc43)O[C@@H]2CO)cc1` [puromycin], the inhibition constant (Ki) in assay [4] was 100 µM; in assay [3], 1 µM. The “effect on hydrolysis of exogenously applied YGGFL” value in assay [5] is “little to no effect”.

The values above are taken from paper PMC5862982 (ACS chemical neuroscience, 2017).
